PMC11887673, “Malformin C preferentially kills glioblastoma stem‐like cells via concerted induction of proteotoxic stress and autophagic flux blockade” (Molecular Oncology, 2024)
Bridge positions count the residues as written; N and C are the ends. Square brackets hold non-standard residues; d marks the D form. Peptide text beside a SMILES is read from it.

Experiments:
[1] = tested on: GSCs; test: Cell viability, GSCs compared with normal or other cells; assay type: cell-based, human; details: 48 h, CellTiter-Glo
From the text: GSC lines NCH421k, NCH441, NCH644, NCH711d, and NCH705 were derived from newly diagnosed GB patients who underwent surgical resection according to the research proposals approved by the Institutional Review Board at the Medical Faculty of Heidelberg (license: Neurosurgery brain tissue 005/2003; samples collected between 2003 and 2010 at Heidelberg University Hospital from patients who gave informed written consent) and performed in accordance to the Declaration of Helsinki. The cells were cultivated in serum‐free stem cell medium up to maximum passage 60 as previously described. Human astrocytes originating from fetal cerebral cortex were purchased from ScienCell, Research Laboratories, Carlsbad, CA, USA (#1800) and cultured in DMEM (Sigma‐Aldrich, Steinheim, Germany) supplemented with 10% (v/v) FCS (Merck Millipore, Darmstadt, Germany), 1 mM sodium pyruvate, 1 × GlutaMAX, and 1 × N‐2 supplement (all Life Technologies, Darmstadt, Germany). Human fetal neural stem cells (HFNSCs) were kindly provided by Dr C Watts at the Department of Clinical Neurosciences, University of Cambridge. Tissue procurement was approved by the Cambridge Local Regional Ethics committee and in accordance with section 16(e) (ii) of the United Kingdom Human Tissue Act and the Declaration of Helsinki. They were established from 12‐ to 14‐week‐old human postmortem fetal tissue as described by Iovino et al. The cells were cultured as neurospheres in neural stem cell medium (DMEM/F‐12 medium, 2% (v/v) B27 supplement, at 20 ng·mL^−1 each of bFGF and EGF, 2.5 μg·mL^−1 heparin). BJ cells (RRID: CVCL_3653) (human fibroblasts) were purchased from ATCC and cultivated in DMEM low glucose supplemented with 10% FCS. […]
Cells were seeded in 96‐well plates at a density of 8500 cells per well. […] Cell viability was assessed by the CellTiter‐Glo® (Promega) luminescent cell viability assay. […] Data were normalized to the vehicle control, and four parameter logistic curves were fitted and IC50 values calculated using […] […]

[2] = tested on: NCH421k; test: Assessment of synergy, combination cell viability (CellTiter-Glo); assay type: cell-based, human
Method: NCH421k cells were seeded in 96‐well white plates with 8500 cells per well in 40 μL medium. To determine control curves, cells were treated with 50 μL of a 2× concentration of TMZ or CQ and 10 μL of medium and incubated for 48 h. For drug combinations, cells were treated with 10 μL of a 10× concentration of malformin C and with 50 μL of a 2× concentration of TMZ or CQ. Cell viability was determined after 48 h using the CellTiter‐Glo® assay according to the manufacturer's instructions. Synergy was determined using […] at https://synergyfinder.org/ [35].

[3] = Pharmacokinetics in plasma and blood brain barrier penetration after i.v. administration; assay type: in vivo; details: RjOrl:Swiss CD-1, mouse, iv, male CD-1 mice, 0.5 mg·kg^−1 i.v., LC–MS
Method: Pharmacokinetic (PK) parameters in plasma and blood brain barrier penetration after intravenous administration of malformin C were evaluated by Pharmacelsus GmbH. Nine adult male RjOrl : Swiss CD‐1 mice were injected i.v. with 0.5 mg·kg^−1 malformin C. K‐EDTA plasma was obtained from the retrobulbar venous plexus under isoflurane anesthesia. The plasma samples were prepared within 45 min after collection, frozen at −20 °C, and stored at this temperature until processed for LC–MS analysis. For brain collection, mice were sacrificed by cervical dislocation, immediately after the last blood sample was obtained. Brains were dissected, frozen, and stored at −20 °C. PK analysis was performed using […] 5.0 Software, Allersberg, Germany. All experimental procedures were approved by and conducted in accordance with the regulations of the local Animal Welfare authorities (Landesamt für Gesundheit und Verbraucherschutz, Abteilung Lebensmittel‐und Veterinärwesen, Saarbrücken).

[4] = tested on: NOD scid gamma (NSG) mice; test: Toxicity and tolerability of repeated doses; assay type: in vivo, mouse
Method: (§1) NCH421k GSCs were transduced with lentiviral particles carrying the pLenti PGK V5‐LUC Neo plasmid, which was a gift from Eric Campeau (Addgene plasmid # 21471) and transduced cells were selected using 400 μg·mL^−1 G418. Six‐week‐old female NOD.Cg‐Prkdc ^ scid Il2rg ^ tm1Wjl /SzJ (NOD‐SCIDγ) mice were obtained from the animal facility at the DKFZ. All animal experiments were performed according to animal welfare regulations and were approved by the responsible authorities (Regierungspräsidium Karlsruhe, approval number G289‐14). Animals were housed in a temperature‐controlled vivarium on a 12 h : 12 h light–dark cycle with ad libitum food and water, and all animals were monitored daily for health status and tumor‐related symptoms. […] Tumor growth was monitored using an IVIS Lumina Preclinical in vivo IMAGING SYSTEM AND LIVING IMAGE Software (version 2.50.1) (Perkin Elmer, Rodgau, Germany) and volume measurement using calipers once a week for 7 weeks, or until the tumor reached a volume of 500 mm^3.
(§2) Malformin C has been previously reported to induce fatal toxicity at doses of over 0.9 mg·kg^−1 in BDF1 mice, likely due to an acute inflammatory response. […] Seven days later, after engraftment of the cells was confirmed by the appearance of a luminescence signal, mice were treated with malformin C or DMSO (0.5 mg·kg^−1 3 × per week) for 37 days. […]

[5] = tested on: NCH421k GSCs expressing luciferase; test: In vivo tumor propagation, flank xenograft; parameters: species or system NSG mice
Method: as §1, §2

[6] = tested on: NCH421k; test: Caspase 3/7 activation (Caspase Glo); assay type: cell-based, human; details: 50 nM, within 6–8 h, n = 3
Method: (§3) A total of 5000 cells were seeded into white 96‐well plates in a volume of 50 μL medium. Malformin C or Az‐mal. C was added to the medium at the indicated concentrations and incubated for the indicated times. Caspase 3/7 activity was measured using the Caspase Glo assay (Promega), according to the manufacturer's protocol.

[7] = tested on: NCH441; test: Caspase 3/7 activation (Caspase Glo); assay type: cell-based, human; details: 50 nM, within 6–8 h, n = 3
Method: as §3

[8] = tested on: fibroblasts (BJ); test: Caspase 3/7 activation (Caspase Glo); assay type: cell-based, human; details: 50 nM, 8 h, n = 3
Method: as §3

[9] = tested on: primary astrocytes (pAstro); test: Caspase 3/7 activation (Caspase Glo); assay type: cell-based, human; details: 50 nM, 8 h, n = 3
Method: as §3

[10] = tested on: BDF1 mice; details: cited from earlier work
Method: Malformin C has been previously reported to induce fatal toxicity at doses of over 0.9 mg·kg^−1 in BDF1 mice, likely due to an acute inflammatory response. […] In a pharmacokinetic study, malfo ...

In the case of malformin A1, the “loss of viability in GSCs compared with normal cells” value (“loss … compared with normal cells” below) [1] is reported as “more potent against GSCs than normal cells”.

For CCN(CC)CCCC(C)Nc1ccnc2cc(Cl)ccc12 (stereo not shown) [CQ, chloroquine], the “synergy with malformin C (SynergyFinder, ZIP synergy score)” value [2] was “much stronger”, the inhibition at 23.7 µM ([2]; Homo sapiens, 48 h, CQ 23.7 μM, Malformin C 0 nM, n = 3) was 17% and the inhibition at 31.6 µM ([2]; Homo sapiens, 48 h, CQ 31.6 μM, Malformin C 0 nM, n = 3) was 32%. The inhibition at 42.2 µM ([2]; Homo sapiens, 48 h, CQ 42.2 μM, Malformin C 0 nM, n = 3) was 33% and the inhibition at 75 µM ([2]; Homo sapiens, 48 h, CQ 75 μM, Malformin C 0 nM, n = 3) was 99%.

For tunicamycin, the “loss … compared with normal cells” value [1] was “not more sensitive than astrocytes”.

In the case of Cn1nnc2c(C(N)=O)ncn2c1=O [TMZ, temozolomide], the “synergy with malformin C (SynergyFinder, ZIP synergy score)” value [2] is reported as “synergistic effect”, the inhibition at 80 µM ([2]; Homo sapiens, 48 h, TMZ 80 μM, Malformin C 0 nM, n = 3) is reported as 2% and the inhibition at 160 µM ([2]; Homo sapiens, 48 h, TMZ 160 μM, Malformin C 0 nM, n = 3) is reported as 6%. It also gave an inhibition at 310 µM ([2]; Homo sapiens, 48 h, TMZ 310 μM, Malformin C 0 nM, n = 3) of 6%, an inhibition at 500 µM ([2]; Homo sapiens, 48 h, TMZ 500 μM, Malformin C 0 nM, n = 3) of 22% and an inhibition at 1000 µM ([2]; Homo sapiens, 48 h, TMZ 1000 μM, Malformin C 0 nM, n = 3) of 47%.

For CN[C@@H]1C[C@H]2O[C@@](C)([C@@H]1OC)n1c3ccccc3c3c4c(c5c6ccccc6n2c5c31)C(=O)NC4 [staurosporine], the “loss … compared with normal cells” value [1] was “similarly”.

With CC(C)C[C@@H]1NC(=O)[C@@H](CC(C)C)NC(=O)[C@H](C(C)C)NC(=O)[C@H]2CSSC[C@@H](NC1=O)C(=O)N2 [malformin C] (cyclo(L[dC][dC]V[dL]); disulfide 2-3) the level at time molar at 1 h ([3]; brain, by 1 h, read-out: equivalent molar concentration in the brain) was roughly 1.9 nM, the half-life ([3]; K-EDTA plasma, n=3 mice per time point) was 5.8 h and the tolerability ([4]; 0.5 mg·kg^−1 i.p. three times per week, NSG mice) was “tolerated well”. The “repeated doses causing intolerable toxicity” value ([4]; immune-deficient NSG mice) was “over 0.9 mg·kg^−1”, the “weights of the mice” value ([5]; 0.5 mg·kg^−1 i.p. 3 × per week, NSG mice, during the study) was “did not affect the weights of the mice” and the “tumor growth (luminescence, caliper volume)” value ([5]; flank of NSG mice, 0.5 mg·kg^−1 i.p. 3 × per week for 37 days, monitored 49 days, n = 9 vs 8 DMSO) was “dramatically suppressed tumor growth”. For the same compound, the “caspase 3/7 activation” value [6] was “significantly activated caspases”, the “caspase 3/7 activation” value [7] was “significantly activated caspases” and the “caspase 3/7 activation” value [8] was “not”. For the same compound, the “caspase 3/7 activation” value [9] was “not” and the “doses inducing fatal toxicity” value [10] was “over 0.9 mg·kg^−1”.
